This is an account of results in paper PMC5840146, “Structure-Activity Relationship Analysis of 3-Phenylcoumarin-Based Monoamine Oxidase B Inhibitors” (Frontiers in Chemistry, 2018).

“And” between values parts separate entries of the source, which are not always exact repeats. Equal values may be shown once.

Holding throughout (assay type): biochemical
Series [1] has as its target T1, MAO-B (Homo sapiens, UniProt P27338).
T1 construct: purchased Sigma-Aldrich
T1 sequence (P27338 1-520): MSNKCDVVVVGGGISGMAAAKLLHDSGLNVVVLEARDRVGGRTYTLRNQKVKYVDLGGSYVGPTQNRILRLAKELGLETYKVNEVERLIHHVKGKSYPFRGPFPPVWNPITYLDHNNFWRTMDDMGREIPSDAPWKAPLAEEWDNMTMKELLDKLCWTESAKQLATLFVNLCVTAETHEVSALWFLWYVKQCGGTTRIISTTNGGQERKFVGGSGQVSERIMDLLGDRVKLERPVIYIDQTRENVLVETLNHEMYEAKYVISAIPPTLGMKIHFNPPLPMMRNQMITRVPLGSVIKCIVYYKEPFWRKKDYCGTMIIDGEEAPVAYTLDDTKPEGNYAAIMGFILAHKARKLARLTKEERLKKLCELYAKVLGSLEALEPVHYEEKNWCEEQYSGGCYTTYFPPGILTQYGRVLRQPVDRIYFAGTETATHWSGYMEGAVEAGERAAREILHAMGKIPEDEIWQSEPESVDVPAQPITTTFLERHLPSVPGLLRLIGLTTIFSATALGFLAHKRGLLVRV
As to the kind of experiment: continuous spectrophotometric MAO-B inhibition assay. The note with it: for LiPE: LiPE = pIC50 - QPlogPo/w, new analogs and pargyline; for IC50: dilution series 50 μM to 1 nM, duplicates, read-out: MAO-B inhibition IC50. As to the method:
(§1) Both monoamine oxidase A (MAO-A) and B (MAO-B) protein and the reagents for the chromogenic solution of vanillic acid (4-hydroxy-3-methoxylbenzoic acid, 97% purity), 4-aminoantipyrine (reagent grade), horseradish peroxidase and the substrate tyramine hydrochloride (minimum 99% purity) as well as the potassium phosphate buffer, which was prepared using potassium phosphate dibasic trihydrate (≥99% ReagentPlus™) and potassium phosphate monobasic (minimum 98% purity, molecular biology tested), were purchased from Sigma-Aldrich (St. Louis, MO, USA) for the spectrophotometric assay.
(§2) The protocol for continuous spectrophotometric assay (Holt et al., [1997]) was followed in the activity measurements. The assay was performed in 0.2 M potassium phosphate buffer pH 7.6 on 96-well plates (Nunc™ 96F microwell plate without a lid, Nunc A/S, Roskilde, DK) in 200 μl total volume. The chromogenic solution containing 1 mM vanillic acid, 500 μM 4-aminoantipyrine and 8 U/ml horseradish peroxidase in 0.2 M potassium phosphate buffer pH 7.6 was mixed anew for each measurement. 5 mM tyramine solution was used as the substrate. In order to determine the activity of both MAO-B and MAO-A, concentration series as duplicates were prepared. The protein was combined with the chromogenic solution and incubated 30 min at 37°C. The background signal was measured using multilabel reader (Victor^TM X4, 2030 Multilabel Reader, PerkinElmer, Waltham, MA, USA) at A490 before reaching the total 200 μl volume by adding 20 μl of tyramine to final concentration of 0.5 mM on the plate. As a result, the final concentration of the chromogenic solution on the plate was 250 μM vanillic acid, 125 μM 4-aminoantipyrine and 2 U/ml horseradish peroxide. After adding the substrate, the plates were measured 300 times every 15 s using 1 s exposure time. The device was set to 37°C for the duration of the experiment.
(§3) The experiment conditions should produce absorbance change of ~0.35 (Holt et al., [1997]). […] The same wide panel of coumarin derivatives was additionally used to analyze the MAO-A inhibition at 100 μM (Table 1, Supplementary Table S1).
(§4) The measured data was then fitted on a curve using non-linear regression with the equation for log[inhibitor] vs. response. The IC50 values were therefore determined based on the curve fit. The fitted curves are shown on –log scale in Supplementary Figures S1, S2.

Series [2] addresses T2, MAO-A (Homo sapiens, UniProt P21397).
T2 construct: purchased Sigma-Aldrich
T2 sequence (P21397 1-527): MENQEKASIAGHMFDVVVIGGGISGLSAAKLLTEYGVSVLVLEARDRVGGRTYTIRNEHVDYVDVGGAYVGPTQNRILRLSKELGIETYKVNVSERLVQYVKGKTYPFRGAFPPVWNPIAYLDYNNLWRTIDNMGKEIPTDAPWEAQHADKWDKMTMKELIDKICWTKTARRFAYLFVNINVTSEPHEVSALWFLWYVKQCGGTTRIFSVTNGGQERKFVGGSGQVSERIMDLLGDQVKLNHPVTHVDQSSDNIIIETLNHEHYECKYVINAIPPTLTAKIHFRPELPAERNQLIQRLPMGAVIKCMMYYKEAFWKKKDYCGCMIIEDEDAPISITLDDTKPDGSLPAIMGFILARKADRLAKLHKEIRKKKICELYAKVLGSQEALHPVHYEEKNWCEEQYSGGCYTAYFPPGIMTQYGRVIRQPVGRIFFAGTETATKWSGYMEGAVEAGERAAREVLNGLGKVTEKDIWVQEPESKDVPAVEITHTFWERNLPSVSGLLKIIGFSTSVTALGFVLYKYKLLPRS
As to the kind of experiment: continuous spectrophotometric MAO-A inhibition assay. Here is the method: as §1, §2, §3, §4

The target of series [3] is T3, recombinant human HSD1 (Homo sapiens, UniProt P14061).
T3 construct: made in house; host or cells: Sf9 insect cells
T3 sequence (P14061 1-328): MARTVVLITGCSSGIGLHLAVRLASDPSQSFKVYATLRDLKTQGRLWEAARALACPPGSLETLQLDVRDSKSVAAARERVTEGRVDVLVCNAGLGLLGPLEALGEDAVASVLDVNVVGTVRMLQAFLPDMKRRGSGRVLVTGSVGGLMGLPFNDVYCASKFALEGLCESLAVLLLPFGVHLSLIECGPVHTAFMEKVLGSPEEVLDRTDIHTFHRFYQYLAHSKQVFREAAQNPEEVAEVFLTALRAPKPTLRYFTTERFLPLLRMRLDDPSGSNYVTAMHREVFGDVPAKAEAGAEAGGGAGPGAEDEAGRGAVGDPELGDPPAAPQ
As to the kind of experiment: HSD1 inhibition by HPLC with tritium labeled estrone/estradiol. The note with it: 1 μM.

The target of series [4] is T4, human CYP1A2 (Homo sapiens, UniProt P05177).
T4 construct: purchased Corning Inc
T4 sequence (P05177 1-516): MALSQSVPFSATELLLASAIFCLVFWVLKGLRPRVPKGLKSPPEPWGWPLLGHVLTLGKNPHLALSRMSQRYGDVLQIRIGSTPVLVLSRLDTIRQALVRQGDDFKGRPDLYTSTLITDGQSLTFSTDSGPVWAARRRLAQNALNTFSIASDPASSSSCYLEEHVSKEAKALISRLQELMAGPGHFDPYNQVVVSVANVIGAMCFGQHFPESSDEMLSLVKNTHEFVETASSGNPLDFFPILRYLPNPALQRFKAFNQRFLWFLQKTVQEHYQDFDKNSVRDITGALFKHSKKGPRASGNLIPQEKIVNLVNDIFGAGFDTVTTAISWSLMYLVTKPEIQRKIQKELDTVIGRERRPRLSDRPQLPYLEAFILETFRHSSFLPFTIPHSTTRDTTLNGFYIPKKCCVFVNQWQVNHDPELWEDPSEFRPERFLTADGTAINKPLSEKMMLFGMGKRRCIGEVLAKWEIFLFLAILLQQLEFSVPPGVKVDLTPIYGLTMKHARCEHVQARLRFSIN
Kind of series: CYP1A2 inhibition, 7-ethoxyresorufin fluorescence assay. As to the method:
Inhibition of CYP1A2 activity was determined with commercial heterologously expressed human CYP1A2 enzyme (Corning Inc., Corning, NY, USA) as described earlier (Korhonen et al., [2005]). The metabolic activity was not in the scope of this particular study. The assay was adapted to the 96-well plate format. In each well, a 150 μL incubation volume contained 100 mM Tris-HCl buffer (pH 7.4), 4.2 mM MgCl2,1 μM 7-ethoxyresorufin, 0.5 pmol of cDNA expressed CYP1A2, […] inhibitor, and a NADPH-generating system. All inhibitors were dissolved in ethanol, and the final concentration of ethanol was 2% in all incubations. The reaction was initiated by adding the NADPH-regenerating system after a 10 min preincubation at 37°C, and after a 20 min incubation, the reaction was terminated by the addition of 110 μL of 80% acetonitrile/20% 0.5 M Tris base. The formed fluorescence was measured with a Victor2 plate counter (Perkin-Elmer Life Sciences Wallac, Turku, Finland) at 570 nm excitation and 616 nm emission.

For orientation: inhibition means the change of the read-out against control, counted positive when it falls. For orientation: IC50 means the point on the concentration scale where inhibition reaches its midpoint.

Regarding `CC(=O)Oc1ccc2cc(-c3ccc(N(C)C)cc3)c(=O)oc2c1` [derivative 19, 3-(4-(dimethylamino)phenyl)-2-oxo-2H-chromen-7-yl acetate], in series [1], the inhibition at 10 µM came out at 85.4%, the LiPE was 3.27 and the half-inhibitory concentration (IC50) was determined as 0.866 µM. The inhibition at 100 µM in series [2] was 0%. Also, in series [3], the inhibition at 1 µM amounted to 15%. This molecule also registered an IC50 in series [4] of 370 µM.

Regarding `COc1ccc2oc(=O)c(-c3ccc(OC(F)(F)F)cc3)cc2c1` [derivative 4, 6-methoxy-3-(4-(trifluoromethoxy)phenyl)-2H-chromen-2-one], in series [1], the inhibition at 10 µM worked out at 102%, the LiPE stood at 2.28 and the half-maximal inhibitory concentration (IC50) amounted to 0.317 µM. Moreover, in series [2], the inhibition at 100 µM stood at 0%. Also, the inhibition at 1 µM in series [3] was 0%. In series [4], this molecule had an IC50 of 7 µM.

In the case of `CC(=O)Oc1ccc2cc(-c3ccc(OC(F)(F)F)cc3)c(=O)oc2c1` [derivative 3, 2-oxo-3-(4-(trifluoromethoxy)phenyl)-2H-chromen-7-yl acetate], in series [1], the inhibition at 10 µM came to 100%; the LiPE was determined as 3.52; the half-inhibitory concentration (IC50) was ~0.141 µM and 0.141 µM. In addition, the inhibition at 100 µM in series [2] is 22%. In addition, the inhibition at 1 µM in series [3] is 0%. In addition, the half-maximal inhibitory concentration (IC50) in series [4] worked out at 280 µM.

In the case of `COc1ccc(-c2cc3cc(OC)ccc3oc2=O)cc1` [derivative 10, 6-methoxy-3-(4-methoxyphenyl)-2H-chromen-2-one], in series [1], the inhibition at 10 µM was found to be 97.6%, the LiPE stood at 3.25 and the 50% inhibitory concentration (IC50) was 0.4 µM. In series [2], the inhibition at 100 µM came out at 10.1%. The inhibition at 1 µM in series [3] came out at 0%. Further, the IC50 in series [4] is 15 µM.

As for `COc1cc(OC)cc(-c2cc3cc(OC)ccc3oc2=O)c1` [derivative 9, 3-(3,5-dimethoxyphenyl)-6-methoxy-2H-chromen-2-one], in series [1], the inhibition at 10 µM was 80.2%; the LiPE was found to be 3.38; the IC50 was ~0.255 µM and 0.255 µM. In addition, the inhibition at 100 µM in series [2] was found to be 0%. The inhibition at 1 µM in series [3] was determined as 0%. Further, it took 84 µM to reach half-maximal inhibition in series [4] (IC50).

Regarding `COc1ccc(-c2cc3ccc(OC(C)=O)cc3oc2=O)cc1` [derivative 13, 3-(4-methoxyphenyl)-2-oxo-2H-chromen-7-yl acetate], in series [1], the inhibition at 10 µM was 85.9%, the LiPE turned out to be 3.30 and the IC50 was found to be 1.95 µM. In addition, the inhibition at 100 µM in series [2] stood at 2.48%. Moreover, the inhibition at 1 µM in series [3] was determined as 0%. This molecule came in with an IC50 in series [4] of 570 µM.

Consider `CC(=O)Oc1ccc2cc(-c3ccccc3)c(=O)oc2c1` [derivative 52], for which the “MAO-B inhibition (in words)” value in series [1] is “activity is lost”. The molecule also registered an MAO-B inhibition % in series [1] (10 µM, 2h) of 0.00%. For the same molecule, the MAO-A inhibition % in series [2] (100 µM, 1h) was determined as 0.00%. Also, the HSD1 inhibition % in series [3] is listed as 0.70%. Besides, the half-maximal inhibitory concentration (IC50) in series [4] turned out to be 80 µM.
